Experimental findings from patent publication US5153226A, “Acat inhibitors for treating hypocholesterolemia” (Warner-Lambert Company, priority 1990, dated 1992) are described below.

For assay [1], the target named is T1, acyl-CoA:cholesterol acyltransferase (ACAT) (Oryctolagus cuniculus, UniProt G1SFD9).
T1 construct: tissue preparation containing rabbit intestinal microsomes; from tissue; host or cells: rabbit intestinal microsomes
T1 sequence (G1SFD9 1-524): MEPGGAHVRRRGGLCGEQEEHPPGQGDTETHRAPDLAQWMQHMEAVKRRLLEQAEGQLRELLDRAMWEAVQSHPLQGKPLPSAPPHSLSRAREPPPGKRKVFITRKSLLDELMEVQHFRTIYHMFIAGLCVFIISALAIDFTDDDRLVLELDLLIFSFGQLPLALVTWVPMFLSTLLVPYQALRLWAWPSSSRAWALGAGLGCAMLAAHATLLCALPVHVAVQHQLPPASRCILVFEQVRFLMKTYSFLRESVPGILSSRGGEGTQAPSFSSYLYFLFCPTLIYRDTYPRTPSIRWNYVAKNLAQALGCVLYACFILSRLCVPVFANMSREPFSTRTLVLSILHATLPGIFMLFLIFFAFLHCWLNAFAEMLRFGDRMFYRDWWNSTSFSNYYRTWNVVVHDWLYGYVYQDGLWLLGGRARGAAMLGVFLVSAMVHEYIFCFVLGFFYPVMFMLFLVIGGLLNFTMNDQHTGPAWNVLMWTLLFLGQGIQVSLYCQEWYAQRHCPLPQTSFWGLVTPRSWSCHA
The experiment in a line: in vitro ACAT inhibition, acylation of cholesterol by oleic acid in tissue preparation containing rabbit intestinal microsomes. Particulars: concentration required to inhibit 50% […] of the enzyme. The assay is classed as biochemical. On the procedure:
The ability of representative compounds of the present invention to inhibit ACAT was measured using an in vitro test more fully described in Field, F. J. and Salone, R. G., Biochemica et Biophysica 712: 557-570 (1982). The test assesses the ability of a test compound to inhibit the acylation of cholesterol by oleic acid by measuring the amount of radio-labeled cholesterol oleate formed from radiolabeled oleic acid in a tissue preparation containing rabbit intestinal microsomes.
The data appear in Table 1 where they are expressed as IC50 values; i.e. the concentration of test compound required to inhibit 50% […] of the enzyme.

Assay [2] deals with cholesterol. Put plainly: in vivo screen APCC, cholesterol in rats fed PCC diet with cholic acid. Further details: species or system male Sprague-Dawley rats. Particulars: APCC rats dosed at 4 PM, PCC diet with 1% or 0.5% cholic acid overnight, blood cholesterol at 8 AM; dose not given. From the text: In one in vivo screen, designated APCC, male Sprague-Dawley rats (200 to 225 g) were randomly divided into treatment groups and dosed at 4 PM with either vehicle (CMC/Tween) or suspensions of compounds in vehicle. The normal, chow diet was then replaced with the PCC diet (RR 740-02122) with either 1% or 0.5% cholic acid, as indicated. The rats consumed this diet ad libitum during the night and were sacrificed at 8 AM to obtain blood samples for cholesterol analysis using standard procedures (RR 740-02122). Statistical differences between mean cholesterol values for the same vehicle were determined using analysis of variance followed by Fisher's least significant test.

A word on the IC50: it is the point on the concentration scale where inhibition reaches its midpoint.

Structures are written as SMILES.

Molecule `CC(C)c1cccc(C(C)C)c1NC(=O)[C@H](Cc1ccccc1)NC(=O)OC(C)(C)C` [Example 41, (S)-α-N-(2,6-Diisopropylphenyl)benzenepropanamide] had an IC50 in assay [1] of 0.35 µM.
The molecule `CC(C)c1cccc(C(C)C)c1NC(=O)CN(CC1(c2ccccc2)CCCC1)C(=S)Nc1ccccc1` [Example 10, N-[2,6-bis(1-Methylethyl)phenyl]-2-[[(phenylamino)thioxomethyl][(1-phenylcyclopentyl)methyl]amino]acetamide] yielded an IC50 in assay [1] of 0.1 µM. Besides, the “% Change (mg/dl)” value in assay [2] is listed as -30%.
Consider `CC(C)c1cccc(C(C)C)c1NC(=O)CN(CC1(c2ccccc2)CCCC1)C(=O)Nc1ccccc1` [Example 11, N-(2,6-bis(1-Methylethyl)phenyl]-2-[[(phenylamino)carbonyl][(1-phenylcyclopentyl)methyl]amino]-acetamide], for which the “% Change (mg/dl)” value in assay [2] is listed as -3%.
Regarding `CC(C)c1cccc(C(C)C)c1NC(=O)CNC(c1ccccc1)c1ccccc1` [Example 4, N-[2,6-bis(1-Methylethyl)phenyl]-2-[(diphenylmethyl)amino]acetamide], in assay [1], 0.055 µM corresponded to half-maximal inhibition (IC50). Moreover, the “% Change (mg/dl)” value in assay [2] is reported as -45%.
Consider `Cc1ccc(S(=O)(=O)N[C@@H](Cc2ccccc2)C(=O)Nc2c(C(C)C)cccc2C(C)C)cc1` [Example 52, (S)-N-[2,6-bis(1-Methylethyl)phenyl]-α-[[(4-methylphenyl)sulfonyl]amino]benzenepropanamide], for which, in assay [1], the IC50 is 0.96 µM.
The same measure, in the same setting: the same measure for `CC(C)c1cccc(C(C)C)c1NC(=O)[C@H](Cc1ccc(O)cc1)NC(=O)OC(C)(C)C` [Example 21, (S)-1,1-Dimethylethyl[2-[[2,6-bis-(1-methylethyl)phenyl]amino]-1-[(4-hydroxyphenyl)-methyl]-2-oxoethyl]carbamate]: 1.05 µM.
In the case of `Cc1ccc(S(=O)(=O)N(CC(=O)Nc2c(C(C)C)cccc2C(C)C)CC2(c3ccccc3)CCCC2)cc1` [Example 14, N-[2,6-bis(1-Methylethyl)phenyl]-2-[[(4-methylphenyl)sulfonyl][(1-phenylcyclopentyl)methyl]amino]acetamide], the “% Change (mg/dl)” value in assay [2] was -24%.
